Test results reported in patent publication US9573975B2, “Melanoma antigen peptide and uses thereof” (INSERM (INSTITUT NATIONAL DE LA SANTE ET DE LA RECHERCHE …, priority 2012, dated 2017).

What was measured:
Format in all cases: cell-based, human
[1] = test system: MELOE-126-46 specific CD4 T cell clone (4E2-DQβ1*0201); assay: Peptide stimulation of CD4 T cell clone 4E2, intracellular cytokine staining
Description: (§1) FIG. 5: Minimal peptides recognized by MELOE-1 specific CD4 T cell clones. MELOE-1 specific CD4 T cell clones were incubated with various concentrations of the indicated peptides during 5 hours in presence of Brefeldin A. TNF-α production was assessed by intracellular labeling with an anti-TNF-α specific antibody. The core peptide sequence is indicated in bold on each figure panel, and black circles illustrate the best fitting peptide.
(§2) Lymphocytes were stimulated for 5 hours in the presence of brefeldin A (10 μg/mL) either with peptide alone (10 μM) in an autopresentation assay or with B-EBV or HLA-class II expressing melanoma cells pulsed 2 hours with the cognate peptide, at a ratio 1:2. In some experiments, blocking mAb against HLA-DP (clone B7.21 from Dr Charron, UMR940, Paris), HLA-DQ (clone SPVL3, Beckman Coulter) or HLA-DR (clone L243, BD Biosciences) were added at a concentration of 12.5 μg/ml. Cells were then stained with APC-conjugated anti-CD4 mAb, fixed with 4% paraformaldehyde, labeled with PE-conjugated anti-cytokine mAb and analyzed by flow cytometry.
(§3) We also documented the T helper profile of each T cell clone, by stimulating the CD4 T cell clones with the cognate peptide, and analyzing cytokine production. All the clones expressed Th1 cytokines (TNFα, IFNγ, IL2 and GM-CSF). On the contrary, these clones differ in their expression of Th2 cytokines. Indeed, the two DQ2 restricted T cell clones (9C12 and 4E2) and the DR1 restricted one (5F9) also strongly express two Th2 cytokines (IL4, and IL13), whereas the DR11-restricted T cell clone only weakly expressed IL4 (Table IV). None of the CD4 T cell expresses IL10 or IL5 at a significant level.
(§4) Three shorter peptides were better recognized by the DQ2-restricted 9C12 T cell clone, the shortest one being MELOE-17-19 (13-mer), recognized with an EC50 of 100 nM. The deletion of the two amino acids in C-term strongly reduces T cell clone recognition. […] Nonetheless all of these clones recognized a series of shortened peptides, thus we cannot formally assess that the shortest ones will be the exact peptides naturally presented on class II molecules.

[2] = test system: MELOE-111-30 specific CD4 T cell clone (5F9-DRβ1*0101); assay: Peptide stimulation of CD4 T cell clone 5F9, intracellular cytokine staining; settings: DRβ1*0101 restricted T cell clone (5F9)
Description: as §1, §2, §3, §4

[3] = test system: MELOE-1 specific T cell clones; assay: HLA restriction of MELOE-1 specific T cell clones (anti-HLA blocking antibodies, HLA-matched B-EBV cell lines); settings: T cell clone 4E2 (from HD25)
Description: FIG. 3: HLA-restricting element of MELOE-1 specific T cell clones and reactivity against HLA-matched melanoma cell lines. The HLA restriction of MELOE-1 specific T cell clones was first assessed using anti-HLA blocking antibodies (upper panel). T cell clones were stimulated for 5 hours in the presence of brefeldin A (10 μg/mL) either with peptide alone (10 μM) in an autopresentation assay and in presence or not of blocking antibodies at a concentration of 12.5 μg/mL. HLA restriction was confirmed with HLA-matched B-EBV cell lines pulsed 2 hrs with the cognate peptide, at a ratio 1:2 (middle panel). Reactivity of each T cell clone against HLA-class II expressing melanoma cells was assessed, in presence or not of exogeneous peptide (lower panel). After 5 hours of stimulation, cells were then stained with APC-conjugated anti-CD4 mAb, fixed with 4% paraformaldehyde, labeled with PE-conjugated anti-TNF-α mAb and analyzed by flow cytometry.
as §2
In order to formally characterize the recognized epitopes, we derived CD4 T cell clones specific for each region of MELOE-1 by limiting dilution, from microcultures of healthy donors or melanoma patients, containing at least 0.5% of specific CD4 T cells. We succeeded to derive CD4 specific T cell clones from HD17, HD22, HD25 and Pt≠3 microcultures, which were reactive against MELOE-12-21 (HD22), MELOE-111-30 (HD17 and Pt≠3) and MELOE-126-46 (HD25). From each cloning experiment, we obtained between one and ten reactive CD4 T cell clones, that turned out to be the same clonotype after CDR3B sequencing (Table IV). A single CD4 T cell clone for each specificity was used for further experiments. The HLA-restriction was determined for each T cell clone, first by using HLA-class II blocking monoclonal antibodies (FIG. 3, upper panel), and further by testing the recognition of HLA-matched B-EBV cell lines loaded with each recognized long peptide (FIG. 3 middle panel). The two T cell clones named 9C12 and 4E2, derived from HD22 and HD25 and specific for MELOE-12-21 and MELOE-126-46 were restricted by the HLA-DQβ1*0202 and the DQβ1*0201 molecules respectively. […]

[4] = test system: CD4 T cells in PBMC from healthy donors; assay: PBMC from healthy donors stimulated with MELOE-1, restimulated with overlapping peptides, CD4/TNF-α staining; settings: for healthy donors in whom CD4 responses against the region were detected: seven healthy donors, TNFα production
Description: FIG. 1: (A) Percentages of TNF-α producing CD4 T cells among positive microcultures. Fourteen days after PBMC stimulation with MELOE-1 whole polypeptide (2-46), microcultures were re-stimulated with each indicated peptide during 5 hours. TNF-α production was then assessed by a double labeling TNF-α-CD4. Results were analyzed with a non-parametric test (Kruskal-Wallis) followed by a Dunns post-test. (B) Frequency of microcultures containing CD4 T cells specific for MELOE-1 peptides (assessed by TNF-α intracellular staining after re-stimulation with the 4 indicated peptides). 624 microcultures (from 7 healthy donors) were analyzed by a contingency table followed by a Fisher exact test.
PBMC from healthy donors were stimulated with 10 μM of MELOE-1. After 14 days, the presence of CD4 T cells specific for the different regions of MELOE-1 was assessed by restimulating cells with MELOE-12-21, MELOE-111-30, MELOE-118-37 and MELOE-126-46 peptides, followed by CD4/TNF-α double staining and flow cytometry analysis. Between brackets is indicated the mean % of TNF-α producing CD4 T cells, in positive microcultures. NA: not available.
(§5) PBMC from healthy donors or melanoma patients (2·10^5 cells/well) were cultured for 14 days with 10 μM of MELOE-1 whole antigen (46 amino acids) in RPMI medium supplemented with 8% HS, 50 IU/ml of rIL-2 (Chiron, France) and L-Glutamin, in 96-well multiplates. Micro cultures were then restimulated individually with each overlapping peptide (MELOE-12-21, MELOE-111-30, MELOE-118-37, MELOE-126-46 or MELOE-122-46 for melanoma patients) in the presence of 10 μg/mL brefeldin A for 5 hours and the percentage of CD4^+ specific T cells was assessed by TNF-α, IFN-γ or IL-4 intracellular staining A negative control without peptide was included in all experiments.
as §2
Our purpose was to look for the existence of class II helper epitopes all along MELOE-1 sequence (SEQ ID NO: 20), in order to document the immunogenicity of the different regions of this melanoma antigen. We stimulated 2·10^7 PBMC from seven healthy donors with MELOE-1 whole antigen and tested, after a 14-day culture period the presence of CD4 T cells specific for each region of the protein. Microcultures were screened for TNFα production by CD4+ T cells, after restimulation with four MELOE-1 derived overlapping peptides (Table I), in an autopresentation assay. […] On the contrary, the central region 18-37, containing an already described DR11-restricted epitope (24-37) located just at the end of this 20-mer peptide (Rogel et al., 2011), induced specific responses in microcultures deriving from only 2/7 donors (HD9 and HD17, both expressing the DR11 element). In these two donors, we detected 6 and 7% of positive microcultures, containing between 0.6 to 3.7% of TNFα producing CD4 T cells.

[5] = test system: CD4 T cells in PBMC from melanoma patients; assay: PBMC from melanoma patients stimulated with MELOE-1, restimulated with peptides, CD4/IFN-γ and CD4/IL4 staining
Description: FIG. 2: (A) Percentages of cytokine producing CD4 T cells among positive microcultures. Fourteen days after PBMC stimulation with MELOE-1 whole polypeptide (2-46), microcultures were re-stimulated with each indicated peptide during 5 hours. IFN-γ (left panel) and IL4 (right panel) production was then assessed by a triple labeling IFN-γ-IL4-CD4. Results were analyzed with a non-parametric test (Kruskal-Wallis) followed by a Dunns post-test. (B) Frequency of microcultures containing CD4 T cells specific for MELOE-1 peptides (assessed by IFN-γ or IL4 intracellular staining after re-stimulation with the 3 indicated peptides). 576 microcultures (from 10 melanoma patients) were analyzed by a contingency table followed by a Fisher exact test.
PBMC from melanoma patients were stimulated with 10 μM of MELOE-1. After 14 days, the presence of CD4 T cells specific for the different regions of MELOE-1 was assessed by restimulating cells with MELOE-12-21, MELOE-111-30 and MELOE-122-46 peptides, followed by CD4/IFN-γ double staining for the detection of Th1 responses, and by CD4/IL4 double staining for Th2 responses. Between brackets is indicated the mean % of cytokine producing CD4 T cells, in positive microcultures.
as §5, §2
In order to confirm the immunogenicity of each MELOE-1 regions in melanoma patients, we stimulated melanoma patients PBMC with the MELOE-1 whole protein, and tested the reactivity of stimulated lymphocytes towards the three most immunogenic regions: 2-21, 11-30, and 22-46. For this study, instead of challenging microcultures with the 18-37 peptide, that appeared poorly immunogenic, we extended the C-terminus region from 26-46 to 22-46, in order to also detect responses to our previously described HLA-DR11-restricted epitope (24-37). […] We tested the induction of CD4 specific responses from MELOE-1 stimulated PBMC of 10 melanoma patients. We documented CD4 responses specific for the central region of MELOE-1 (11-30) for 7/9 patients, whereas responses specific for MELOE-12-21 and MELOE-122-46 were respectively detected in 4/9 and 5/9 patients (Table III). These responses were mainly Th1 responses (IFN-g production) while less frequent Th2 responses specific for the three regions of MELOE-1 were detected in 3/9 patients for MELOE-12-21, 2/9 patients for MELOE-111-30 and 5/9 patients for MELOE-122-46 (Table III). […] Concerning Th2 responses, much less frequent, the C-term region appeared to induce more frequently the growth of IL-4 producing CD4 T cells than the two other regions (FIG. 2A). […]

[6] = clone 4E2, cognate peptide 10 μM, 5 hours

RISSTLNDECWPA [Peptide 32-44]
recognition by T cell clone (TNF-α production) ([1]; T cell clone 4E2, compared with 31-44): recognized to a lower extent

SREQFLPSEGAAC [MELOE-112-24]
recognition by T cell clone (TNF-α production) [2]: optimal shorter peptides

PWHPSERISSTLNDECWPASL [MELOE-126-46]
HLA-restricting element of the peptide-specific T cell clone [3]: DQβ1*0201 | mean % of TNF-α producing CD4 T cells, in positive microcultures ([4]; donor HD22): (1% ± 0.1) | healthy donors in whom CD4 responses against the region were detected [4]: 4 out of 7 | Cytokine profile: GM-CSF [1, 6]: GM-CSF ^high | Cytokine profile: IFN [1, 6]: IFN ^high | Cytokine profile: IL2 [1, 6]: IL2 ^high | Cytokine profile: IL4 [1, 6]: IL4 ^high | Cytokine profile: IL5 [1, 6]: IL5 ^low | Cytokine profile: IL10 [1, 6]: IL10 ^neg | Cytokine profile: IL13 [1, 6]: IL13 ^high | Cytokine profile: TNF ([1]; clone 4E2, cognate peptide 10 μM, 5 hours, autopresentation): TNF ^high

TSREQFLPSEGAA [MELOE-111-23]
recognition by T cell clone (TNF-α production) [2]: optimal shorter peptides

PSEGAACPPWHPSERISSTL [MELOE-118-37]
mean % of TNF-α producing CD4 T cells, in positive microcultures ([4]; donor HD17): (3% ± 0.7) | healthy donors in whom CD4 responses against the region were detected [4]: 2/7

AACPPWHPSERISSTLNDECWPASL [MELOE-122-46]
mean % of cytokine producing CD4 T cells, in positive microcultures (IFN-γ, Th1) ([5]; Pt ≠ 1): (4.8% ± 7.2) | mean % of cytokine producing CD4 T cells, in positive microcultures (IL4, Th2) ([5]; Pt ≠ 1): (0.8% ± 0.3) | mean % of cytokine producing CD4 T cells, in positive microcultures (IFN-γ, Th1) ([5]; Pt ≠ 2): (0.6% ± 0.02) | mean % of cytokine producing CD4 T cells, in positive microcultures (IFN-γ, Th1) ([5]; Pt ≠ 3): (1.9% ± 1.3) | mean % of cytokine producing CD4 T cells, in positive microcultures (IL4, Th2) ([5]; Pt ≠ 5): (0.8%) | mean % of cytokine producing CD4 T cells, in positive microcultures (IFN-γ, Th1) ([5]; Pt ≠ 7): (2.9% ± 3.5) | mean % of cytokine producing CD4 T cells, in positive microcultures (IL4, Th2) ([5]; Pt ≠ 7): (1.5% ± 0.7) | mean % of cytokine producing CD4 T cells, in positive microcultures (IFN-γ, Th1) ([5]; Pt ≠ 8): (0.5%) | mean % of cytokine producing CD4 T cells, in positive microcultures (IL4, Th2) ([5]; Pt ≠ 8): (0.6%) | mean % of cytokine producing CD4 T cells, in positive microcultures (IL4, Th2) ([5]; Pt ≠ 9): (0.7% ± 0.15) | Th1 responses, share of tested microcultures ([5]; of 576 tested microcultures, melanoma patients): 9.6% | melanoma patients with CD4 specific responses (mainly Th1, IFN-g production) ([5]; responding/tested patients): 5/9 | melanoma patients with Th2 responses ([5]; responding/tested patients, IL4): 5/9
